Like-named read-outs stand apart in the source and are kept apart here.
Test system: anaesthetized dog
Assay: Antiangorous activity on anaesthetized dog: consumption of oxygen in the left ventricule and cardiac effort (KATZ's index)
Assay type: in vivo
Settings: for inhibition in vivo at 2.5 mg/kg / inhibition in vivo at […] / inhibition in vivo at 0.625 mg/kg / inhibition in vivo at 1.25 mg/kg: Canis lupus familiaris, iv; for inhibition in vivo at […]: 0.15 mg/kg i.v. slow perfusion
Experimental: The antiangorous activity was tested on an anaesthetized dog (sodium pentobarbital 30 mg/kg/i.v.).
The consumption of oxygen in the left ventricule was estimated by the product of the coronary venous flow and the coronary arteriovenous difference in oxygen (% volume).
The coronary venous flow was measured at the coronary venous sinus by means of a modified Morawitz cannula, introduced under radioscopic control.
The cardiac effort was estimated according to KATZ's index, by the product of the average arterial pressure and the cardiac frequency.
The cardiac frequency was estimated from the electrocardiogram recorded with D2 derivation.
It should be noted that the compounds tested were injected intravenously with slow perfusion.

[1] = 2.5 mg/kg i.v. slow perfusion, read-out: Diminution in consumption of O2
[2] = 2.5 mg/kg i.v. slow perfusion, read-out: Diminution in the cardiac effort (IK)
[3] = read-out: Diminution in consumption of O2
[4] = read-out: Diminution in the cardiac effort (IK)
[5] = 0.625 mg/kg i.v. slow perfusion
[6] = 0.625 mg/kg i.v. slow perfusion, read-out: Diminution in consumption of O2
[7] = 0.625 mg/kg i.v. slow perfusion, read-out: Diminution in the cardiac effort (IK)
[8] = 1.25 mg/kg i.v. slow perfusion, read-out: Diminution in consumption of O2
[9] = 1.25 mg/kg i.v. slow perfusion, read-out: Diminution in the cardiac effort (IK)

Compound | Diminution in consumption of O2: in time (2.5 mg/kg i.v. slow perfusion) [min] | Diminution in the cardiac effort (IK): in time (2.5 mg/kg i.v. slow perfusion) [min] | inhibition in vivo at 2.5 mg/kg [1] [%] | inhibition in vivo at 2.5 mg/kg [2] [%] | also measured
COc1cc(/C=C/C(=O)N2CCN(CC(O)COc3ccc(C(C)=O)c4c3CCC4)CC2)cc(OC)c1OC (centres unmarked) [760 852] | 30 | 45 | 44 | 23 | 
COc1cc(/C=C/C(=O)N2CCN(CC(O)COc3ccc(Cl)cc3C)CC2)cc(OC)c1OC (centres unmarked) [770 966] |  | 30 | 7 | 46 | 
CNC(=O)Nc1ccc(OCC(O)CN2CCN(C(=O)/C=C/c3cc(OC)c(OC)c(OC)c3)CC2)c2ccccc12 (centres unmarked) [771 031] |  |  |  |  | inhibition in vivo at […] [3]: 20%; inhibition in vivo at […] [4]: 25%
COc1cc(/C=C/C(=O)N2CCN(CC(O)COc3ccc(NC(C)=O)c4ccccc34)CC2)cc(OC)c1OC (centres unmarked) [771 036] |  | 15 | 15 | 25 | 
COc1cc(/C=C/C(=O)N2CCN(CC(O)COc3ccc(NC(=O)N4CCOCC4)c4c3OCCO4)CC2)cc(OC)c1OC (centres unmarked) [771 149] |  |  |  |  | inhibition in vivo at […] [3]: 12%; inhibition in vivo at […] [4]: 14%
CNC(=O)Nc1ccc(OCC(O)CN2CCN(C(=O)/C=C/c3cc(OC)c(OC)c(OC)c3)CC2)c2c1CCC2 (centres unmarked) [771 153] | 23 | 40 | 31 | 63 | 
CNC(=O)c1ccc(OCCCN2CCN(C(=O)/C=C/c3cc(OC)c(OC)c(OC)c3)CC2)c2c1OCCO2 [771 163] |  |  |  |  | Diminution in consumption of O2: in time [5]: 30 min; Diminution in the cardiac effort (IK): in time [5]: 40 min; inhibition in vivo at 0.625 mg/kg [6]: 61%; inhibition in vivo at 0.625 mg/kg [7]: 20%
COc1cc(/C=C/C(=O)N2CCN(CCCOc3ccc(NC(C)=O)c4c3OCCO4)CC2)cc(OC)c1OC [771 172] | 15 | 23 | 25 | 29 | 
COc1cc(C#N)ccc1OCC(O)CN1CCN(C(=O)/C=C/c2cc(OC)c(OC)c(OC)c2)CC1 (centres unmarked) [771 281] | 30 | 30 | 23 | 44 | 
COc1cc(/C=C/C(=O)N2CCN(CC(O)COc3ccc(NC(C)=O)c4c3CCC4)CC2)cc(OC)c1OC (centres unmarked) [771 306] |  |  |  |  | Diminution in consumption of O2: in time (1.25 mg/kg i.v. slow perfusion): 15 min; Diminution in the cardiac effort (IK): in time (1.25 mg/kg i.v. slow perfusion): 30 min; inhibition in vivo at 1.25 mg/kg [8]: 58%; inhibition in vivo at 1.25 mg/kg [9]: 38%
COc1cc(/C=C/C(=O)N2CCN(CC(O)COc3ccc(C(C)=O)c4ccccc34)CC2)cc(OC)c1OC (centres unmarked) [771 315] |  |  |  |  | Diminution in the cardiac effort (IK): in time (1.25 mg/kg i.v. slow perfusion): 15 min; inhibition in vivo at 1.25 mg/kg [8]: 11%; inhibition in vivo at 1.25 mg/kg [9]: 29%
COc1cc(/C=C/C(=O)N2CCN(CC(O)COc3ccc(C(=O)c4ccccc4)cc3)CC2)cc(OC)c1OC (centres unmarked) [771 318] | 60 | 15 | 63 | 31 | 
COc1cc(/C=C/C(=O)N2CCN(CC(O)COc3ccc(OC)c4c3OCCO4)CC2)cc(OC)c1OC (centres unmarked) [780 009] |  |  |  |  | Diminution in consumption of O2: in time (1.25 mg/kg i.v. slow perfusion): 35 min; Diminution in the cardiac effort (IK): in time (1.25 mg/kg i.v. slow perfusion): 30 min; inhibition in vivo at 1.25 mg/kg [8]: 48%; inhibition in vivo at 1.25 mg/kg [9]: 20%
COc1cc(/C=C/C(=O)N2CCN(CC(O)COc3ccc(C(C)=O)c4c3CCCC4)CC2)cc(OC)c1OC (centres unmarked) [780 128] | 23 | 23 | 57 | 17 | 
CNC(=O)Nc1ccc(OCC(O)CN2CCN(C(=O)/C=C/c3cc(OC)c(OC)c(OC)c3)CC2)c(Cl)c1 (centres unmarked) [780 189] | 30 | 45 | 63 | 30 | 
COc1ccc(NC(=O)Nc2ccc(OCC(O)CN3CCN(C(=O)/C=C/c4cc(OC)c(OC)c(OC)c4)CC3)c3c2OCCO3)cc1 (centres unmarked) [780 223] | 90 | 90 | 62 | 35 | 
COc1cc(/C=C/C(=O)N2CCN(CC(O)COc3ccc(C(C)=O)c4c3OCCCO4)CC2)cc(OC)c1OC (centres unmarked) [780 241] |  |  |  |  | inhibition in vivo at […] [3]: 30%; inhibition in vivo at […] [4]: 13%
CCCc1ccc(OCC(O)CN2CCN(C(=O)/C=C/c3cc(OC)c(OC)c(OC)c3)CC2)cc1 (centres unmarked) [780 267] | 30 |  | 27 | 8 | 

Compound | Diminution in consumption of O2: in time (2.5 mg/kg i.v. slow perfusion) [min] | Diminution in the cardiac effort (IK): in time (2.5 mg/kg i.v. slow perfusion) [min] | inhibition in vivo at 2.5 mg/kg [1] [%] | inhibition in vivo at 2.5 mg/kg [2] [%] | also measured
COc1cc(C(C)=O)ccc1OCC(O)CN1CCCN(C(=O)/C=C/c2cc(OC)c(OC)c(OC)c2)CC1 (centres unmarked) [780 269] | 30 | 60 | 34 | 40 | 
COc1cc(/C=C/C(=O)N2CCCN(CC(O)COc3ccc(NC(C)=O)c4c3OCCO4)CC2)cc(OC)c1OC (centres unmarked) [780 272] | 90 | 90 | 40 | 51 | 
CNC(=O)Nc1cc(Cl)c(OCC(O)CN2CCN(C(=O)/C=C/c3cc(OC)c(OC)c(OC)c3)CC2)c(Cl)c1 (centres unmarked) [780 292] | 90 | 45 | 59 | 34 | 
CCCCCOC(=O)c1ccc(OCC(O)CN2CCN(C(=O)/C=C/c3cc(OC)c(OC)c(OC)c3)CC2)c2c1OCCO2 (centres unmarked) [780 301] |  |  |  |  | inhibition in vivo at […] [3]: 40%; inhibition in vivo at […] [4]: 28%
CCCC(=O)c1ccc(OCC(O)CN2CCN(C(=O)/C=C/c3cc(OC)c(OC)c(OC)c3)CC2)cc1 (centres unmarked) [780 302] | 30 | 30 | 46 | 14 | 
COc1cc(C=O)ccc1OCC(O)CN1CCN(C(=O)/C=C/c2cc(OC)c(OC)c(OC)c2)CC1 (centres unmarked) [780 329] | 30 | 30 | 21 | 13 | 
COc1cc(/C=C/C(=O)N2CCN(CC(O)COc3ccc(C(=O)OC4CCCCC4)c4c3OCCO4)CC2)cc(OC)c1OC (centres unmarked) [780 333] |  |  |  |  | inhibition in vivo at […] [3]: 51%; inhibition in vivo at […] [4]: 21%
COc1cc(/C=C/C(=O)N2CCN(CC(O)COc3c(Cl)cc(C(C)=O)cc3Cl)CC2)cc(OC)c1OC (centres unmarked) [780 339] | 45 | 40 | 74 | 42 | 
COc1cc(/C=C/C(=O)N2CCN(CC(O)COc3ccc(NC(C)=O)c4c3OCO4)CC2)cc(OC)c1OC (centres unmarked) [780 346] |  |  |  |  | inhibition in vivo at […] [3]: 43%; inhibition in vivo at […] [4]: 2%
COc1cc(/C=C/C(=O)N2CCN(CC(O)COc3ccc(C(C)=O)cc3F)CC2)cc(OC)c1OC (centres unmarked) [780 353] | 15 | 15 | 46 | 16 | 
CNC(=O)Nc1cc(OC)c(OCC(O)CN2CCN(C(=O)/C=C/c3cc(OC)c(OC)c(OC)c3)CC2)c(OC)c1 (centres unmarked) [780 357] | 15 | 15 | 43 | 21 | 
COc1cc(/C=C/C(=O)N2CCN(CC(O)COc3c(OC)cc(C(C)=O)cc3OC)CC2)cc(OC)c1OC (centres unmarked) [780 359] |  |  |  |  | Diminution in consumption of O2: in time [5]: 45 min; Diminution in the cardiac effort (IK): in time [5]: 30 min; inhibition in vivo at 0.625 mg/kg [6]: 60%; inhibition in vivo at 0.625 mg/kg [7]: 32%
CCOC(=O)c1cc(OC)c(OCC(O)CN2CCN(C(=O)/C=C/c3cc(OC)c(OC)c(OC)c3)CC2)c(OC)c1 (centres unmarked) [780 361] | 30 | 45 | 68 | 38 | 
COc1cc(/C=C/C(=O)N2CCN(CC(O)COc3ccc(C(=O)OC(C)(C)C)c4c3OCCO4)CC2)cc(OC)c1OC (centres unmarked) [780 369] |  |  |  |  | Diminution in consumption of O2: in time [5]: 15 min; Diminution in the cardiac effort (IK): in time [5]: 15 min; inhibition in vivo at 0.625 mg/kg [6]: 37%; inhibition in vivo at 0.625 mg/kg [7]: 4%
COc1cc(/C=C/C(=O)N2CCN(CC(O)COc3ccc(C(=O)OC(C)C)c4c3OCCO4)CC2)cc(OC)c1OC (centres unmarked) [780 373] | 30 | 30 | 66 | 25 | 
CNC(=O)Nc1ccc(OCC(O)CN2CCCN(C(=O)/C=C/c3cc(OC)c(OC)c(OC)c3)CC2)c2c1OCCO2 (centres unmarked) [780 374] | 30 | 15 | 39 | 31 | 
COc1cc(/C=C/C(=O)N2CCN(CC(O)CSc3ccc(C(C)=O)c4c3OCCO4)CC2)cc(OC)c1OC (centres unmarked) [780 384] |  |  |  |  | inhibition in vivo at […] [3]: 43%; inhibition in vivo at […] [4]: 25%

From patent US4178442A, “Novel cinnamoyles piperazines and homopiperazines, the method of preparing them and their application in therapeutics” (Delalande S. A., priority 1977, dated 1979)
